Assay results reported in patent US8022038B2, “Composition for acceleration of type I collagen production” (Fancl Corporation, priority 2005, dated 2011).
Non-standard residues stand in square brackets, D forms with d. No end group written: not given here. Hyp = O=C(O)[C@@H]1C[C@@H](O)CN1

Tested on: three-dimensional human skin model (type I collagen production)
Test: Type I collagen production in three-dimensional human skin model (TESTSKIN LSE-high), Western blotting with imaging analysis
Assay type: cell-based
Method: Three-dimensional human skin models are widely used in safety evaluation and effectiveness evaluation as a simulated model of human skin. In this test, TESTSKIN (LSE-high) (Toyobo Co., Ltd.) was used as a three-dimensional human skin model.
A culture medium was added to the outer well of TESTSKIN (LSE-high) and cultured for 24 hours. Thereafter, the culture solution was changed and each agent was added by 100 μl onto the tissues in the assay ring, after which the medium was cultured for 36 hours. Thereafter, the tissues were collected and a tissue extraction solution (50 mM Tris-HCl (pH 7.5), 0.5% (Octylphenoxy) polyethoxyethanol (Sigma-Aldrich Corp.)) was added, and then the mixture was homogenized using a homogenizer made of fluorocarbon resin. The homogenized mixture was centrifuged for 30 minutes at 10,000×G to remove tissue fragments, and then dialyzed overnight in distilled water at 4° C. Thereafter, the dialyzed mixture was freeze-dried to remove water. A tissue extraction solution was added to obtain a x20 concentrate, and this concentrate was used in Western blotting as a three-dimensional skin model extract sample.
Using a three-dimensional human skin model extract sample, 10 μg of protein was applied per lane, after which the sample was separated via SDS-PAGE and the result was transferred onto nitrocellulose membranes. The transferred nitrocellulose membranes were soaked in a blocking solution (solution prepared by dissolving skim milk in a PBS containing 0.1% polyoxyethylene (20) sorbitan monolaurate to achieve a concentration of 5%) and blocked for one whole day at 4° C. The blocked membranes were washed with a washing solution (PBS containing 0.1% polyoxyethylene (20) sorbitan monolaurate) and then soaked in a primary antibody (polyclonal antibody of type I collagen (Rockland Inc.) adjusted to 500 ng/ml using a washing solution) to cause reaction for 1 hour at room temperature. The reacted membranes were washed and then soaked in a secondary antibody (horseradish peroxidase labeled anti-rabbit immunoglobulin G adjusted to 250 ng/ml using a washing solution) to cause reaction for 1 hour at room temperature. The reacted membranes were washed and then detection was performed using an ECL plus Western blotting detection reagent (Amersham Biosciences Inc.). The detected band was also scanned into an image scanner (Amersham Biosciences Inc.) and analyzed using image master software (Amersham Biosciences Inc.) for conversion to numerical values.

[1] = 10 μM alone, Example 3, FIGS. 9 and 10
[2] = 10 μM, Example 3, FIGS. 7 and 8
[3] = 30 μM, Example 3, FIGS. 7 and 8
[4] = 10 μM, 36 h treatment, Example 1, FIGS. 1 and 2

| Compound | type I collagen production compared to the level in the untreated control [1] | type I collagen production compared to the level in the untreated control [2] | type I collagen production compared to the level in the untreated control [3] | type I collagen production compared to the level in the untreated control [4] | other results |
| --- | --- | --- | --- | --- | --- |
| Lys-Thr-Thr-Lys-Ser (KTTKS) [pentapeptide derived from an α1 collagen decomposition product, synthesized] | 1.80 times | 1.80 times | 2.45 times | – | – |
| COc1cc([C@@H]2Oc3c(O)cc([C@H]4Oc5cc(O)cc(O)c5C(=O)[C@@H]4O)cc3[C@H]2CO)ccc1O [silychristin] | – | – | – | 0.95 times | – |
| Gly-Pro-[Hyp] | – | – | – | – | type I collagen production compared to the level in the untreated control (5 μM, Example 2, FIGS. 3 and 4): 1.05 times; type I collagen production compared to the level in the untreated control (10 μM, Example 2, FIGS. 3 and 4): 1.15 times; type I collagen production compared to the level in the untreated control (30 μM used alone, Example 2, FIGS. 5 and 6): 1.25 times; type I collagen production compared to the level in the untreated control (30 μM, Example 2, FIGS. 3 and 4): 1.25 times |
| COc1cc(C2Oc3cc([C@H]4Oc5cc(O)cc(O)c5C(=O)[C@@H]4O)ccc3OC2CO)ccc1O (stereo partly drawn) [silybin] | – | – | – | 3.2 times | type I collagen production compared to the level in the untreated control (5 μM alone, Example 3, FIGS. 9 and 10): 1.95 times; type I collagen production compared to the level in the untreated control (5 μM used alone, Example 2, FIGS. 5 and 6): 1.85 times |
| Gly-Glu-Pro-Arg (GEPR) [peptide derived from an immunoglobulin G decomposition product, synthesized] | 2.10 times | 2.15 times | 3.55 times | – | – |
| COc1cc([C@@H]2[C@H]3CO[C@@]4(O)C(=O)[C@@H]2C=C([C@H]2Oc5cc(O)cc(O)c5C(=O)[C@@H]2O)[C@@H]34)ccc1O [silydianin] | – | – | – | 0.9 times | – |
| Gly-His-Lys | 1.75 times | 1.75 times | 2.70 times | – | – |
